Measurements: ChEMBL document CHEMBL6071146, “Synthesis and identification of a selective FGFR2 degrader with potent antiproliferative effects in gastric cancer” (Eur J Med Chem, 2024)
pIC50: −log10 of the molar value.

What was measured:
cells [1] = conditions: Homo sapiens, KATO III, 24 h, read-out: Activity
Description: Induction of apoptosis in human KATO III cells assessed as viable cells at 500 nM incubated for 24 hrs by Annexin V-FITC/PI staining based flow cytometry (Rvb = 87.00 %)

SNU-16 [2] = assay: Antiproliferative activity against human SNU-16 cells incubated for 72 hrs by MTT assay; conditions: SNU-16, 72 h
SNU-16 [3] = assay: Antitumor activity against human SNU-16 cells xenografted in BALB/c mouse at 20 mg/kg, ip qd for 25 days relative to control; conditions: SNU-16, 600 h, read-out: TGI
[4] = Antiproliferative activity against human KATO III cells incubated for 72 hrs by MTT assay
cells [5] = conditions: Homo sapiens, KATO III, 24 h, read-out: Activity; remark: listed apart in the source
Description: Induction of apoptosis in human KATO III cells assessed as viable cells at 1000 nM incubated for 24 hrs by Annexin V-FITC/PI staining based flow cytometry (Rvb = 87.00 %)

SNU-16 [6] = assay: cells; conditions: Homo sapiens, SNU-16, 24 h, read-out: Activity
Description: Induction of apoptosis in human SNU-16 cells assessed as viable cells at 1000 nM incubated for 24 hrs by Annexin V-FITC/PI staining based flow cytometry (Rvb = 77.12 %)

SNU-16 [7] = assay: cells; conditions: Homo sapiens, SNU-16, 24 h, read-out: Activity; remark: listed apart in the source
Description: Induction of apoptosis in human SNU-16 cells assessed as viable cells at 500 nM incubated for 24 hrs by Annexin V-FITC/PI staining based flow cytometry (Rvb = 77.12 %)

With COc1cc(OC)cc(N(CCNC(C)C)c2ccc3ncc(-c4cnn(C)c4)nc3c2)c1 [ERDAFITINIB] the viability at 0.5 µM (cells [1]) was 70.7%, the pIC50 (SNU-16 [2]) was 9.00 and the inhibition in vivo at 20 mg/kg (SNU-16 [3]) was 104%. It also gave a pIC50 [4] of 8.40, a viability at 1 µM (cells [5]) of 69.1% and a viability at 1 µM (SNU-16 [6]) of 47.8%. It also gave a viability at 0.5 µM (SNU-16 [7]) of 49.9%.
With COc1cc(OC)cc(N(CCNC(C)C)c2ccc3ncc(-c4cnn(CC(=O)NCCNc5cccc6c5C(=O)N(C5CCC(=O)NC5=O)C6=O)c4)nc3c2)c1 (stereo not drawn) the pIC50 (SNU-16 [2]) was 7.32 and the pIC50 [4] was 6.33.
Work on COc1cc(OC)cc(N(CCNC(C)C)c2ccc3ncc(-c4cnn(CCOCCOCC(=O)NCCNc5cccc6c5C(=O)N(C5CCC(=O)NC5=O)C6=O)c4)nc3c2)c1 (stereo not drawn) yielded a pIC50 (SNU-16 [2]) of 9.00 and a pIC50 [4] of 6.68.
For COc1cc(OC)cc(N(CCNC(C)C)c2ccc3ncc(-c4cnn(CCOCCOCCOCCOCC(=O)NCCNc5cccc6c5C(=O)N(C5CCC(=O)NC5=O)C6=O)c4)nc3c2)c1 (stereo not drawn), the pIC50 (SNU-16 [2]) was 8.00 and the pIC50 [4] was 6.80.
COc1cc(OC)cc(N(CCNC(C)C)c2ccc3ncc(-c4cnn(CCCC(=O)NCCNc5cccc6c5C(=O)N(C5CCC(=O)NC5=O)C6=O)c4)nc3c2)c1 (stereo not drawn) gave a pIC50 (SNU-16 [2]) of 6.63 and a pIC50 [4] of 6.76.
COc1cc(OC)cc(N(CCNC(C)C)c2ccc3ncc(-c4cnn(CC(=O)NCC(=O)NCCNc5cccc6c5C(=O)N(C5CCC(=O)NC5=O)C6=O)c4)nc3c2)c1 (stereo not drawn) gave a pIC50 (SNU-16 [2]) of 7.19 and a pIC50 [4] of 6.28.
COc1cc(OC)cc(N(CCNC(C)C)c2ccc3ncc(-c4cnn(CCCC(=O)NCC(=O)NCCNc5cccc6c5C(=O)N(C5CCC(=O)NC5=O)C6=O)c4)nc3c2)c1 (stereo not drawn) showed a pIC50 (SNU-16 [2]) of 7.66 and a pIC50 [4] of 8.70.
COc1cc(OC)cc(N(CCNC(C)C)c2ccc3ncc(-c4cnn(CCC(=O)NCCNc5cccc6c5C(=O)N(C5CCC(=O)NC5=O)C6=O)c4)nc3c2)c1 (stereo not drawn) showed a pIC50 (SNU-16 [2]) of 6.82 and a pIC50 [4] of 6.15.
COc1cc(OC)cc(N(CCNC(C)C)c2ccc3ncc(-c4cnn(CCCCCCCCCC(=O)NCCNc5cccc6c5C(=O)N(C5CCC(=O)NC5=O)C6=O)c4)nc3c2)c1 (stereo not drawn) gave a pIC50 (SNU-16 [2]) of over 9.77 and a pIC50 [4] of 8.70.
